Results on 24 molecules are retold here after ChEMBL document CHEMBL1201862, “PubChem BioAssay data set” (2004).

Some test systems named below: DLD-1; XF498; HOP-18; LXFL 529; DMS-273; KM-20L2; DMS-114; SNB-78; RXF 631.
Holding throughout (experiment): NCI-60 cell line screen, 48 h

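1) Cells in 96-well plates. 2) Compound, 48 h, 5 concentrations. 3) Linear interpolation between surrounding doses. 4) Unreached endpoint = highest concentration. GI50 marks 50% less growth.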 Activity calls are given as the source filed them. Rule as the data show it: active = GI50 up to about 1.1 µM and inactive = higher.

Take `O=C1c2nc3n(c2C(=O)c2c1nc1n2CCC1)CCC3`: the GI50 in the assay on DLD-1 is 5.09 µM (inactive); in the assay on XF498, 6.38 µM (inactive); with HOP-18, 14 µM (inactive); with LXFL 529, 9.93 µM (inactive); in the assay on DMS-273, 3.3 µM (inactive); in the assay with KM-20L2, 3.61 µM (inactive). Further, the GI50 in the assay on DMS-114 is 2.04 µM (inactive); in the assay with SNB-78, 13.8 µM (inactive).
Turning to `CC12OOC(c3ccccc31)c1c2ccc2ccccc12` (stereo unspecified), the GI50 with DLD-1 is 1.45 µM (inactive); with HOP-18, 1.86 µM (inactive); with LXFL 529 it was 2.04 µM (inactive); in the assay on DMS-273, 8.69 µM (inactive); in the assay with RXF 631, 8.04 µM (inactive); with KM-20L2 it was 3.66 µM (inactive). Further, the GI50 in the assay on DMS-114 was 0.885 µM (active); with SNB-78, 4.11 µM (inactive).
With `NC(=O)C12CC3CC(CC(Br)(C3)C1)C2`, the GI50 in the assay with DLD-1, in the assay with XF498, in the assay on HOP-18, in the assay on LXFL 529, with DMS-273 and in the assay with RXF 631 was > 100 µM (inactive) throughout. The GI50 in the assay with KM-20L2, in the assay on DMS-114 and in the assay with SNB-78 was > 100 µM (inactive) in each case.
Consider `CN(C)c1n/c(=N/c2cccc(Cl)c2)ss1`, for which the GI50 in the assay on DLD-1 was 12.1 µM (inactive); in the assay with XF498 it was 16.7 µM (inactive); in the assay on HOP-18 it was > 100 µM (inactive); in the assay with LXFL 529, 7.14 µM (inactive); in the assay with DMS-273, 13 µM (inactive); in the assay with RXF 631 it was 13.5 µM (inactive). In addition, the GI50 in the assay on KM-20L2 is 17.4 µM (inactive); with DMS-114, 11.2 µM (inactive); in the assay with SNB-78 it was 18.1 µM (inactive).
`Cc1nc2c(n1C(C)(C)C)C(=O)c1ccccc1C2=O`: the GI50 was 87.3 µM (inactive) in the assay with DLD-1; 44 µM (inactive) in the assay with XF498; 67.9 µM (inactive) with LXFL 529; 52.8 µM (inactive) with DMS-273; 51.5 µM (inactive) in the assay with KM-20L2; > 100 µM (inactive) in the assay with SNB-78.
`CC1=CC(C)(c2c[nH]c3ccccc23)CC(C)(C)c2c1[nH]c1ccccc21` (stereo unspecified): the GI50 was 13.7 µM (inactive) in the assay on DLD-1; 20.6 µM (inactive) in the assay with XF498; > 100 µM (inactive) in the assay on HOP-18; 30.1 µM (inactive) in the assay with LXFL 529; 14.5 µM (inactive) with RXF 631; 14.8 µM (inactive) in the assay on KM-20L2. Further, the figures for the GI50 in the assay on DMS-114 and in the assay on SNB-78 were 14.9 µM (inactive) and 28.2 µM (inactive), respectively.
As to `O=C(CC1(O)C(=O)Nc2ccccc21)c1ccccc1O` (stereo unspecified), the GI50 in the assay with DLD-1, with XF498, with LXFL 529, in the assay on DMS-273, in the assay with RXF 631 and with KM-20L2 was > 100 µM (inactive) throughout. In addition, the GI50 in the assay on DMS-114 and with SNB-78 was > 100 µM (inactive) each time.
Consider `O/N=C1/C(=C/c2ccccc2)CCCC1C(NO)c1ccccc1` (stereo unspecified), for which the GI50 with XF498 is 28.1 µM (inactive); with HOP-18, > 100 µM (inactive); in the assay with LXFL 529 it was 49.1 µM (inactive); in the assay with DMS-273, > 100 µM (inactive); with RXF 631, > 100 µM (inactive); in the assay on KM-20L2 it was > 100 µM (inactive). Further, the GI50 was 30.7 µM (inactive) in the assay with DMS-114 and 50.6 µM (inactive) in the assay on SNB-78.
For the molecule `O=C1c2ccccc2C(=O)c2c1ccc1c3ccccc3n(Cc3ccccc3)c21`, the GI50 in the assay on DLD-1 is > 100 µM (inactive); in the assay on XF498, > 100 µM (inactive); in the assay on HOP-18 it was 0.0319 µM (active); in the assay with LXFL 529, > 100 µM (inactive); with DMS-114, > 100 µM (inactive).
On to `COc1ccc(C)cc1-c1cc(Sc2ccccc2)c(-c2cc(C)ccc2OC)o1`, for which the GI50 in the assay on DLD-1 is > 31.6 µM (inactive); in the assay with XF498, > 100 µM (inactive); in the assay with HOP-18, > 31.6 µM (inactive); in the assay on LXFL 529, > 31.6 µM (inactive); in the assay on DMS-273 it was > 31.6 µM (inactive); in the assay on RXF 631, > 31.6 µM (inactive). Also, the GI50 in the assay on KM-20L2, with DMS-114 and in the assay on SNB-78 was > 31.6 µM (inactive) in each case.
Turning to `C[C@@H](O)CCC(=O)c1ccoc1`, the GI50 in the assay on DLD-1, in the assay on HOP-18, with LXFL 529, in the assay on DMS-273, in the assay with KM-20L2 and in the assay on DMS-114 was > 100 µM (inactive) throughout. The GI50 in the assay on SNB-78 was > 100 µM (inactive).
In the case of `COc1cc2cccc(/N=C/c3c(Br)ccc(OC)c3OC(C)C)c2cc1OC`, the GI50 was 23.8 µM (inactive) in the assay on DLD-1; 56.9 µM (inactive) in the assay with XF498; 26.8 µM (inactive) with LXFL 529; > 100 µM (inactive) in the assay on KM-20L2; 25.6 µM (inactive) with DMS-114; 38.6 µM (inactive) in the assay on SNB-78.
With `O=c1[nH]c(-c2ccc(-c3nc4cc([N+](=O)[O-])ccc4c(=O)[nH]3)cc2)nc2cc([N+](=O)[O-])ccc12`, the GI50 with DLD-1, with LXFL 529, in the assay on DMS-273, with RXF 631, in the assay with KM-20L2 and in the assay with DMS-114 was > 100 µM (inactive) each time. For the same molecule, the GI50 in the assay on SNB-78 is > 100 µM (inactive).
As for `CC(C)[C@H]1CO[C@]2(C)[C@@H]3CN(Cc4ccccc4)C[C@@H]3C(=O)N12`, the GI50 with DLD-1, with HOP-18, in the assay with LXFL 529, in the assay on DMS-273, with KM-20L2 and in the assay on DMS-114 was > 100 µM (inactive) each time.
On to `COc1cc(Nc2nc3cc(C)ccc3nc2-c2ccccc2)cc(OC)c1OC`, for which the GI50 with XF498 is 19.7 µM (inactive); with HOP-18 it was 24.3 µM (inactive); in the assay with LXFL 529, 39.7 µM (inactive); in the assay on DMS-273 it was 11.8 µM (inactive); with KM-20L2 it was 30.5 µM (inactive); with DMS-114 it was 6.9 µM (inactive).
Take `O=C(OCc1ccccc1)N1N=NC2C1C1CC(OCc3ccccc3)(OCc3ccccc3)C2O1` (stereo unspecified): the GI50 in the assay on DLD-1, with XF498, in the assay on HOP-18, in the assay with LXFL 529, in the assay with DMS-273 and in the assay with KM-20L2 was > 100 µM (inactive) throughout. Further, the GI50 with SNB-78 was > 100 µM (inactive).
Turning to `COC(=O)n1c(C[P+](c2ccccc2)(c2ccccc2)c2ccccc2)cc2ccccc21`, the GI50 in the assay with DLD-1 is 1.06 µM (active); with XF498 it was 0.746 µM (active); in the assay with LXFL 529 it was 0.372 µM (active); in the assay with DMS-273, 0.697 µM (active); with KM-20L2 it was 1.94 µM (inactive); with DMS-114, 1.09 µM (active). Further, the GI50 with SNB-78 is 3.37 µM (inactive).
As to `CC(C)(C)c1cc2c(OP(c3ccccc3)c3ccccc3)c(c1)Cc1cc(C(C)(C)C)cc(c1OP(c1ccccc1)c1ccccc1)Cc1cc(C(C)(C)C)cc(c1OP(c1ccccc1)c1ccccc1)Cc1cc(C(C)(C)C)cc(c1OP(c1ccccc1)c1ccccc1)C2`, the GI50 in the assay with DLD-1, in the assay with HOP-18, with LXFL 529, in the assay with DMS-273, in the assay on KM-20L2 and in the assay on DMS-114 was > 5 µM (inactive) in each case. In addition, in the assay on SNB-78, the GI50 was > 5 µM (inactive).
`O=C(O)c1ccccc1C(=O)c1ccco1`: the GI50 in the assay on DLD-1, with XF498, with HOP-18, in the assay on DMS-273, in the assay on KM-20L2 and in the assay with DMS-114 was > 100 µM (inactive) in each case. Besides, the GI50 in the assay on SNB-78 is > 100 µM (inactive).
For the molecule `C[C@]12CC/C(=N\OC(=O)Nc3ccccc3)C=C1CC[C@@H]1C2CC[C@@]2(C)C1CC[C@@H]2OC(=O)Nc1ccccc1` (stereo partly specified), the GI50 was 13.4 µM (inactive) in the assay with XF498; > 100 µM (inactive) in the assay on HOP-18; 15.5 µM (inactive) in the assay with LXFL 529; > 100 µM (inactive) in the assay on DMS-273; > 100 µM (inactive) in the assay with KM-20L2; 23.2 µM (inactive) in the assay with DMS-114. In the assay with SNB-78, the GI50 was > 100 µM (inactive).
`CCOC(=O)C(N)CSC(=O)NC` (stereo unspecified): the GI50 is 130 µM (inactive) in the assay on DLD-1; 104 µM (inactive) in the assay with XF498; 357 µM (inactive) with HOP-18; 83.6 µM (inactive) in the assay on DMS-273; 171 µM (inactive) in the assay with KM-20L2; 51.3 µM (inactive) with DMS-114.
Take `O=S(=O)(N/N=C/c1cccc(Cl)c1Cl)c1ccccc1`: the GI50 was 45.4 µM (inactive) with DLD-1; 54.7 µM (inactive) in the assay with XF498; 87.3 µM (inactive) in the assay with HOP-18; 70.6 µM (inactive) in the assay with LXFL 529; 71.4 µM (inactive) in the assay on DMS-273; > 100 µM (inactive) with KM-20L2. Besides, the GI50 was 27.7 µM (inactive) with DMS-114 and > 100 µM (inactive) with SNB-78.
With `CC1(Sc2ccccc2)CN(Cc2ccccc2)C1=O` (stereo unspecified), the GI50 was > 100 µM (inactive) in the assay with DLD-1; 39.5 µM (inactive) with XF498; > 100 µM (inactive) with HOP-18; > 100 µM (inactive) in the assay on DMS-273; > 100 µM (inactive) with RXF 631; > 100 µM (inactive) in the assay on KM-20L2. In addition, the GI50 in the assay on DMS-114 is 45.6 µM (inactive); in the assay with SNB-78 it was > 100 µM (inactive).
For `Cc1cc(N(CCC#N)CCC#N)ccc1/C=N\c1ccc(C(=O)NN2C(=O)/C(=C/c3ccc(N(CCC#N)CCC#N)cc3)N=C2c2cc([N+](=O)[O-])ccc2Cl)cc1`, the GI50 was 78.9 µM (inactive) in the assay on DLD-1; 61.9 µM (inactive) in the assay on XF498; 5.4 µM (inactive) in the assay on HOP-18; 71.6 µM (inactive) in the assay on LXFL 529; 47.6 µM (inactive) in the assay with DMS-273; > 100 µM (inactive) in the assay with RXF 631. The GI50 in the assay on KM-20L2 was 67.1 µM (inactive); in the assay with DMS-114 it was > 100 µM (inactive); in the assay on SNB-78 it was > 100 µM (inactive).
